In ChEMBL document CHEMBL2029263, “New myrsinol diterpenes from Euphorbia prolifera and their inhibitory activities on LPS-induced NO production” (Bioorg Med Chem Lett, 2012) one finds IC50 and Activity data, which are given here for 13 compounds.

Molecules are shown by their SMILES.

In data set [1] the test system is BV-2. Briefly: Inhibition of LPS-induced NO production in mouse BV2 cells after 20 hrs by Griess assay. In kind it is functional, cell-based. As to conditions: BV-2, 20 h. For orientation: The Griess reaction detects nitrite, a stable product of nitric oxide.
The subject of data set [2] is BV-2. Briefly: Cytotoxicity against mouse BV2 cells at effective concentration after 20 hrs by MTT assay. Type of data set: cell-based. The note with it: bv-2, 20 h. In general terms: Tetrazolium dyes change colour on reduction, which living cells bring about.

The IC50 is the midpoint of a concentration-inhibition curve.

Consider `CSC(=N)N`, for which the IC50 in the data set with BV-2 [1] is 13.2 µM.

Compound `C=C(C)[C@H]1C=C[C@@H](OC(=O)c2cccnc2)[C@@]23CO[C@@](C)([C@H](OC(=O)c4cccnc4)[C@@]4(OC(C)=O)C[C@H](C)[C@H](OC(=O)CC)[C@@H]4[C@H]2OC(C)=O)[C@H]13` registered an IC50 with BV-2 [1] of 80.2 µM. In the data set with BV-2 [2], the Activity result is recorded as “Non-toxic”.

In the data set on BV-2 [1], `C=C(C)[C@H]1C=C[C@@H](OC(=O)c2ccccc2)[C@@]23CO[C@@](C)([C@H](OC(=O)c4cccnc4)[C@@]4(OC(C)=O)C[C@H](C)[C@H](OC(=O)CC)[C@@H]4[C@H]2OC(C)=O)[C@H]13` had an IC50 of 74.3 µM. Moreover, in the data set on BV-2 [2], the Activity result was “Non-toxic”.

As to `CCC(=O)O[C@@H]1[C@@H]2[C@@H](OC(=O)c3ccccc3)[C@@]3(COC(=O)c4cccnc4)[C@@H]([C@@H]4[C@H](C[C@H]3OC(C)=O)C4(C)C)[C@](C)(O)C(=O)[C@@]2(O)C[C@@H]1C` [EUPHORBIALOID A], the IC50 in the data set on BV-2 [1] was found to be 19.4 µM. The Activity entry in the data set on BV-2 [2] is on record as “Non-toxic”.

As to `CC(=O)O[C@@H]1[C@@H]2[C@@H](OC(=O)c3ccccc3)[C@@]3(COC(=O)c4cccnc4)[C@@H]([C@@H]4[C@H](C[C@H]3OC(C)=O)C4(C)C)[C@](C)(O)C(=O)[C@@]2(O)C[C@@H]1C` [EUPHORBIALOID B], in the data set with BV-2 [1], the midpoint of inhibition, the IC50, lay at 15.6 µM. Besides, the Activity entry with BV-2 [2] is “Non-toxic”.

`CCC(=O)O[C@@H]1[C@@H]2[C@@H](OC(=O)c3ccccc3)[C@@]3(COC(=O)c4cccnc4)[C@@H]([C@@H]4[C@H](C[C@H]3OC(C)=O)C4(C)C)[C@](C)(OC(C)=O)C(=O)[C@@]2(O)C[C@@H]1C` [EUPHORBIALOID C] had a half-inhibitory concentration (IC50) in the data set on BV-2 [1] of 29.7 µM. Besides, the Activity result in the data set on BV-2 [2] is on record as “Non-toxic”.

Consider `CCCC(=O)O[C@@H]1[C@@H]2[C@@H](OC(=O)c3ccccc3)[C@@]3(COC(=O)c4cccnc4)[C@@H]([C@@H]4[C@H](C[C@H]3OC(C)=O)C4(C)C)[C@](C)(OC(C)=O)C(=O)[C@@]2(O)C[C@@H]1C` [EUPHORBIALOID D], for which the IC50 with BV-2 [1] came to 35.2 µM. Also, the Activity entry in the data set on BV-2 [2] was “Non-toxic”.

The compound `CC(=O)O[C@@H]1[C@H]2[C@@H](OC(=O)c3cccnc3)[C@@H](C)C[C@]2(OC(C)=O)[C@@H](OC(C)=O)[C@]2(C)OC[C@]13C(=O)C=C[C@H](C(C)(C)OC(C)=O)[C@@H]23` [EUPHORBIALOID E] returned an IC50 in the data set on BV-2 [1] of 33.7 µM. Besides, the Activity result with BV-2 [2] is recorded as “Non-toxic”.

`CCC(=O)O[C@@H]1[C@@H]2[C@@H](OC(C)=O)[C@@]34CO[C@@](C)([C@H](OC(=O)c5cccnc5)[C@@]2(OC(C)=O)C[C@@H]1C)[C@@H]3[C@@H](C(C)(C)OC(C)=O)C=CC4=O` [EUPHORBIALOID F] came in with a half-inhibitory concentration (IC50) in the data set on BV-2 [1] of 36.5 µM. Further, the Activity result with BV-2 [2] is “Non-toxic”.

Compound `CCC(=O)O[C@@H]1[C@@H]2[C@@H](OC(C)=O)[C@@]34CO[C@@](C)([C@H](OC(C)=O)[C@@]2(O)C[C@@H]1C)[C@@H]3[C@@H]1[C@@H](C[C@]1(C)OC(C)=O)[C@@H](OC(=O)c1cccnc1)C4=O` [EUPHORBIALOID G] came in with a 50% inhibitory concentration (IC50) in the data set with BV-2 [1] of 48.7 µM. The Activity entry in the data set on BV-2 [2] is reported as “Non-toxic”.

Regarding `CCC(=O)O[C@@H]1[C@@H]2[C@@H](OC(C)=O)[C@@]34CO[C@@](C)([C@H](OC(=O)c5cccnc5)[C@@]2(OC(C)=O)C[C@@H]1C)[C@@H]3[C@@H]1[C@@H](C[C@]1(C)OC(C)=O)[C@@H](OC(=O)c1ccccc1)C4=O` [EUPHORBIALOID H], in the data set on BV-2 [1], the half-maximal inhibitory concentration (IC50) is 64.3 µM. Further, the Activity entry with BV-2 [2] was “Non-toxic”.

Turning to `CCC(=O)O[C@@H]1[C@@H]2[C@@H](OC(C)=O)[C@@]34CO[C@@](C)([C@@H](OC(=O)c5ccccc5)[C@@]2(OC(C)=O)C[C@@]1(C)OC(=O)c1cccnc1)[C@@H]3[C@@H](C(C)(C)OC(C)=O)C=C[C@H]4OC(C)=O` [EUPHORBIALOID I], the IC50 in the data set on BV-2 [1] is 41.3 µM. Further, in the data set with BV-2 [2], the Activity result is reported as “Non-toxic”.

Compound `CC(=O)O[C@@H]1[C@H]2[C@@H](OC(=O)c3cccnc3)[C@](C)(OC(=O)C(C)C)C[C@]2(OC(C)=O)[C@H](OC(=O)c2ccccc2)[C@]2(C)OC[C@]13[C@H](OC(C)=O)C=C[C@H](C(C)(C)OC(C)=O)[C@@H]23` [EUPHORBIALOID J] came in with an IC50 with BV-2 [1] of 43.8 µM. Further, in the data set with BV-2 [2], the Activity result is listed as “Non-toxic”.
